{
  "source": "patent US12459918B2",
  "about": "“Isoquinolinone derivatives serving as rock protein kinase inhibitors and use thereof” (GUANGZHOU OCUSUN OPHTHALMIC BIOTECHNOLOGY CO., LTD., priority 2019, dated 2025)",
  "key": {"[1]": {"test_system": "New Zealand rabbits with normal intraocular pressure", "assay": "Ocular stimulation response examination by hand-held slit lamp, 14 days eye-drop administration", "format": "in vivo", "settings": "concentration range of 0.25-4 mg/mL, 14 consecutive days, 50 μL/eye/day", "experimental": "(§1) 42 male New Zealand rabbits were randomly divided into 7 groups, with 6 rabbits per group. Animals were randomly divided according to body weight Animals in 1-7 groups were eye-dropped with normal saline in the left eye and with solvent/control sample/test sample in the right eye respectively by a volume of 50 μL/eye, once per day for 14 consecutive days, and the day of administration was recorded as Day 1. The intraocular pressure of the animals was measured before Day 1 administration and in 1, 2, 4, 6, 8 and 10 hours after Day 1 administration, respectively (Table 8).\nBefore the experiment (Day 2/Day 1), before daily administration during the administration (Days 1-14), and in 1, 2, 4, 24, 48 and 72 hours after the last administration (Day 14), the eyes of animals were examined for ocular stimulation response and fluorescein sodium by a hand-held slit lamp (scoring by referring to the scoring criteria).\nBefore the experiment (Day 2/Day 1), before the first daily administration (Days 1-14) during the administration, and in 1, 2, 4, 24, 48 and 72 hours after the last administration, the eyes of animals were examined for ocular stimulation response by a hand-held slit lamp. The scoring criteria were as follows. […]"}, "[2]": {"assay": "Toxicokinetics experiment: active compounds in plasma after 14 days of continuous administration", "format": "in vivo, New Zealand rabbits", "settings": "for Concentration of active compounds in plasma, Group 1 / Concentration of active compounds in plasma, Group 2: 8.0 mg/mL eye-drop, after 14 days of continuous administration", "experimental": "Experimental Example 5. Toxicokinetics Experiment\nThe production rate of active drug ingredients and the exposure amount of active drug ingredients of the compound in plasma were detected after 14 days of continuous administration.\nMale New Zealand rabbits, aged 3-6 months, weighted 2.0-5.0 kg, purchased from PizhouDongfang Breeding Co. Ltd.\nAfter 14 days of continuous administration, blood samples from the group administrated with compound 63 (8.0 mg/mL) were collected at 0 hour (before administration) and in 0.5, 1, 2, 4, 8, and 24 hours after administration on Days 14-15. About 0.8 mL of whole blood was collected from the auricular artery or the saphenous vein of the hind limb (or other appropriate sites) of toxicokinetics experiment animals, and was placed in labeled collection tubes using ethylenediaminetetraacetic acid dipotassium (K2EDTA) as an anticoagulant. Plasma was obtained by centrifugation for 10 minutes at 3000 rpm and under the condition of 2° C. to 8° C. in 60 minutes after blood collection. All samples were quantitatively detected for the content of the administered compounds in plasma of the experimental animals by liquid chromatography-coupled mass spectrometry (LC-MS) and mass spectrometry (MS) technology."}, "[3]": {"test_system": "New Zealand rabbits with normal intraocular pressure", "assay": "Repeated eye-drop administration for 14 days, experiment operation 2: Day 1 intraocular pressure", "format": "in vivo", "settings": "for Mean intraocular pressure of both eyes: saline in left, Day 1", "from_the_text": "Experimental example 4. Experiment on reduction of intraocular pressure and ocular toxicity of New Zealand rabbits with normal intraocular pressure by repeated eye-drop administration for 14 days\nThe intraocular pressure reduction action and the potential ocular toxicity of compound 63 were explored by 14 days of repeated eye-drop administration in rabbits with normal intraocular pressure.\nMale New Zealand rabbits, aged 97-127 days, weighted 2.6-3.5 kg, purchased from PizhouDongfang Breeding Co. Ltd.\nas §1"}, "[4]": {"settings": "Time 0.00 hour (before administration)"}},
  "data": [
    {"smiles": "Cc1ccc(C(=O)OCn2cc(C)c3c(S(=O)(=O)N4CC[C@H](N)C4)cccc3c2=O)c(C)c1", "note": "[Compound 63]", "values": [
      {"measurement": "Evaluation of ocular stimulation", "setting": "[1]", "value": "no stimulation"},
      {"measurement": "Concentration of active compounds in plasma, Group 1", "setting": "[2]; [4]", "value": "BQL"},
      {"measurement": "Concentration of active compounds in plasma, Group 2", "setting": "[2]; [4]", "value": "BQL"},
      {"measurement": "Concentration of active compounds in plasma, Group 1", "setting": "[2]; Time 8.00 hour", "value": "BQL"},
      {"measurement": "Concentration of active compounds in plasma, Group 2", "setting": "[2]; Time 8.00 hour", "value": "BQL"},
      {"measurement": "Concentration of active compounds in plasma, Group 1", "setting": "[2]; Time 24.0 hour", "value": "BQL"},
      {"measurement": "Concentration of active compounds in plasma, Group 2", "setting": "[2]; Time 24.0 hour", "value": "BQL"},
      {"measurement": "Metabolite concentration in plasma", "setting": "[2]; 8 hours after administration, high dose of 8 mg/mL", "value": "below the detection limit"},
      {"measurement": "Mean intraocular pressure of both eyes", "setting": "[3]; 0.25 mg/mL in right eye, 1 hour after administration", "value": 6.22, "unit": "mmHg"},
      {"measurement": "Mean intraocular pressure of both eyes", "setting": "[3]; 0.25 mg/mL in right eye, 2 hours after administration", "value": 6.17, "unit": "mmHg"},
      {"measurement": "Mean intraocular pressure of both eyes", "setting": "[3]; 0.25 mg/mL in right eye, 4 hours after administration", "value": 6.67, "unit": "mmHg"},
      {"measurement": "Mean intraocular pressure of both eyes", "setting": "[3]; 0.25 mg/mL in right eye, 6 hours after administration", "value": 8.06, "unit": "mmHg"},
      {"measurement": "Mean intraocular pressure of both eyes", "setting": "[3]; 0.25 mg/mL in right eye, 8 hours after administration", "value": 9.72, "unit": "mmHg"},
      {"measurement": "Mean intraocular pressure of both eyes", "setting": "[3]; 0.25 mg/mL in right eye, 10 hours after administration", "value": 10.95, "unit": "mmHg"},
      {"measurement": "Mean intraocular pressure of both eyes", "setting": "[3]; 0.25 mg/mL in right eye, before administration", "value": 9.84, "unit": "mmHg"},
      {"measurement": "Mean intraocular pressure of both eyes", "setting": "[3]; 0.5 mg/mL in right eye, 1 hour after administration", "value": 5.39, "unit": "mmHg"},
      {"measurement": "Mean intraocular pressure of both eyes", "setting": "[3]; 0.5 mg/mL in right eye, 2 hours after administration", "value": 5.50, "unit": "mmHg"},
      {"measurement": "Mean intraocular pressure of both eyes", "setting": "[3]; 0.5 mg/mL in right eye, 4 hours after administration", "value": 6.95, "unit": "mmHg"},
      {"measurement": "Mean intraocular pressure of both eyes", "setting": "[3]; 0.5 mg/mL in right eye, 6 hours after administration", "value": 8.94, "unit": "mmHg"},
      {"measurement": "Mean intraocular pressure of both eyes", "setting": "[3]; 0.5 mg/mL in right eye, 8 hours after administration", "value": 9.89, "unit": "mmHg"},
      {"measurement": "Mean intraocular pressure of both eyes", "setting": "[3]; 0.5 mg/mL in right eye, 10 hours after administration", "value": 11.56, "unit": "mmHg"},
      {"measurement": "Mean intraocular pressure of both eyes", "setting": "[3]; 0.5 mg/mL in right eye, before administration", "value": 9.22, "unit": "mmHg"},
      {"measurement": "Mean intraocular pressure of both eyes", "setting": "[3]; 1.0 mg/mL in right eye, 1 hour after administration", "value": 5.56, "unit": "mmHg"},
      {"measurement": "Mean intraocular pressure of both eyes", "setting": "[3]; 1.0 mg/mL in right eye, 2 hours after administration", "value": 5.39, "unit": "mmHg"},
      {"measurement": "Mean intraocular pressure of both eyes", "setting": "[3]; 1.0 mg/mL in right eye, 4 hours after administration", "value": 6.67, "unit": "mmHg"},
      {"measurement": "Mean intraocular pressure of both eyes", "setting": "[3]; 1.0 mg/mL in right eye, 6 hours after administration", "value": 7.33, "unit": "mmHg"},
      {"measurement": "Mean intraocular pressure of both eyes", "setting": "[3]; 1.0 mg/mL in right eye, 8 hours after administration", "value": 10.50, "unit": "mmHg"},
      {"measurement": "Mean intraocular pressure of both eyes", "setting": "[3]; 1.0 mg/mL in right eye, 10 hours after administration", "value": 10.89, "unit": "mmHg"},
      {"measurement": "Mean intraocular pressure of both eyes", "setting": "[3]; 1.0 mg/mL in right eye, before administration", "value": 9.17, "unit": "mmHg"},
      {"measurement": "Mean intraocular pressure of both eyes", "setting": "[3]; 2.0 mg/mL in right eye, 1 hour after administration", "value": 8.11, "unit": "mmHg"},
      {"measurement": "Mean intraocular pressure of both eyes", "setting": "[3]; 2.0 mg/mL in right eye, 2 hours after administration", "value": 5.84, "unit": "mmHg"},
      {"measurement": "Mean intraocular pressure of both eyes", "setting": "[3]; 2.0 mg/mL in right eye, 4 hours after administration", "value": 6.06, "unit": "mmHg"},
      {"measurement": "Mean intraocular pressure of both eyes", "setting": "[3]; 2.0 mg/mL in right eye, 6 hours after administration", "value": 7.11, "unit": "mmHg"},
      {"measurement": "Mean intraocular pressure of both eyes", "setting": "[3]; 2.0 mg/mL in right eye, 8 hours after administration", "value": 9.00, "unit": "mmHg"},
      {"measurement": "Mean intraocular pressure of both eyes", "setting": "[3]; 2.0 mg/mL in right eye, 10 hours after administration", "value": 10.05, "unit": "mmHg"},
      {"measurement": "Mean intraocular pressure of both eyes", "setting": "[3]; 2.0 mg/mL in right eye, before administration", "value": 9.72, "unit": "mmHg"},
      {"measurement": "Mean intraocular pressure of both eyes", "setting": "[3]; 4 mg/mL in right eye, 1 hour after administration", "value": 6.61, "unit": "mmHg"},
      {"measurement": "Mean intraocular pressure of both eyes", "setting": "[3]; 4 mg/mL in right eye, 2 hours after administration", "value": 5.84, "unit": "mmHg"},
      {"measurement": "Mean intraocular pressure of both eyes", "setting": "[3]; 4 mg/mL in right eye, 4 hours after administration", "value": 5.72, "unit": "mmHg"},
      {"measurement": "Mean intraocular pressure of both eyes", "setting": "[3]; 4 mg/mL in right eye, 6 hours after administration", "value": 6.61, "unit": "mmHg"},
      {"measurement": "Mean intraocular pressure of both eyes", "setting": "[3]; 4 mg/mL in right eye, 8 hours after administration", "value": 8.39, "unit": "mmHg"},
      {"measurement": "Mean intraocular pressure of both eyes", "setting": "[3]; 4 mg/mL in right eye, 10 hours after administration", "value": 10.67, "unit": "mmHg"},
      {"measurement": "Mean intraocular pressure of both eyes", "setting": "[3]; 4 mg/mL in right eye, before administration", "value": 10.00, "unit": "mmHg"},
      {"measurement": "Efficacy of a single dose (highest hypotensive effect and action duration)", "setting": "[3]; all test doses (0.25-4.0 mg/mL), compared with K-115", "value": "superior efficacy"}
    ]}
  ]
}
